Measured values taken from patent publication US7871628B2, “Peptide mimics of conserved gonococcal epitopes and methods and compositions using them” (University of Massachusetts, priority 1999, dated 2011).
Where “and” joins values, the source holds several entries; their conditions need not be identical. Identical values can stand only once. Positions of bridges follow the written chain, without caps; N, C: chain ends. No end group written: not given here.

Tests used:
mAb 2C7 [1] = assay: Direct ELISA: mAb 2C7 binding to multiple antigen peptides; conditions: plates coated with MAP 1 μg/well
Description: (§1) Solid phase ELISA was performed to assess the binding of mAb 2C7 to multiple antigen peptides. For direct ELISA, Immulon 1 plates were coated overnight with multiple antigen peptides (1 μg/well) and reacted with varying concentration of mAb 2C7. For inhibition ELISA, plates were coated with purified LOS prepared from N. gonorrhoeae strain 15253 (80 μg/ml) at 37° C. for 3 h. Peptides (linear or MAPs) were diluted in blocking buffer (1% ovalbumin, 0.05% TWEEN-20™ (polysorbate 20), 0.5 M NaCl in PBS) to produce mixtures of varying concentrations. 50 μl-aliquots from each concentration were incubated with 50 μl of mAb 2C7 (stock concentration 0.4 μg/ml diluted in blocking buffer) at 37° C. for 1 h, then 100 μl of mixtures were loaded into microtiter plate wells. […] Purified LOS prepared from gonococcal strain 15253 was used as a positive control in inhibition ELISA.

[2] = tested on: N. gonorrhoeae strain 15253; assay: Complement-mediated bactericidal assay, strain 15253; type: cell-based, Neisseria gonorrhoeae
Description: (§2) A bactericidal assay was performed using (A) mAb 2C7 mice against strain 15253 (positive control) and strain 15253 lgtG (negative control) (4). 25 μg/ml of mAb 2C7 (100 μl in 150 μl of total volume of reaction mixture) mediated 100% killing of strain 15253, and no killing of strain 15253 lgtG. […] FIG. 12 controls included the Complement source without antibody (137.9%±1.0% survival (no killing) for strain 15253, and 132.5%±14.3% survival (no killing) for the lgtG mutant of 15253).
(§3) Depicted in FIG. 12 is a graph showing survival of N. gonorrhoeae strain 15253 and its lgtG mutant (2C7 epitope negative) (4) exposed to mouse immune serum (67% final mouse immune serum concentration by volume) plus added human complement obtained from normal human donors (17% final human complement concentration by volume).
A standard bactericidal assay was performed to assess complement-mediated bactericidal activity in mouse sera (11). In this assay, mouse serum (67% final volume) (from various mice immunized or not as described below) was incubated with approximately 2.5×10^3 bacteria suspended in Morse A media (33) in the presence of human complement (17% final volume). The reaction mixture was then shaken continuously at 37° C. for 30 minutes. Aliquots of the reaction mixture were then inoculated onto chocolate agar plates at time 0 and 30 minutes. Survival was expressed as the percent increase in colonies on the plate at 30 minutes, compared to those on the plate at 0 minutes. Greater than 100% survival in the assay indicates growth during the 30-minute incubation period.

IgG anti-LOS antibody = IgG anti-LOS antibody response in immunized mice; type: in vivo
Description: FIGS. 8A-8D show octa-MAP1-induced IgG anti-LOS antibody responses in mice. (A) Eight mice received a dose of 50 μg of Octa-MAP1 emulsified in Freund's adjuvant on day 0 and again on day 21. (B) Four mice were immunized with purified LOS as a positive control. Mice were immunized with either Freund's adjuvant (C) or an unrelated octa-MAP control peptide (D) as negative controls.
In FIG. 8(A), eight mice received a dose of 50 μg of Octa-MAP1 emulsified in Freund's adjuvant on day 0 and again on day 21. […] In these mice, IgG anti-LOS titers increased minimally after the first immunization and rose after boosting.
IgG anti-LOS antibody responses for the responder mice only (from the experiments depicted in FIGS. 8A-8D) are shown in FIG. 10. Antibody response is defined as IgG anti-LOS (mean±SE) greater than 0.4 μg/ml (4 fold above baseline IgG anti-LOS levels).

mAb 2C7 [3] = assay: Inhibition ELISA: linear peptide or MAPs inhibiting mAb 2C7 binding to LOS; conditions: for IC50: mAb 2C7 stock 0.4 μg/ml, LOS of strain 15253 coated plates, read-out: half maximal inhibition (IC50) of mAb 2C7 binding to LOS
Description: as §1

IgM anti-LOS antibody = IgM anti-LOS antibody response in immunized mice; type: in vivo; conditions: responder mice only
[4] = tested on: N. gonorrhoeae strain 15253 lgtG; assay: Complement-mediated bactericidal assay, strain 15253 lgtG mutant (2C7 epitope negative); type: cell-based, Neisseria gonorrhoeae; conditions: serum of single immunized mouse, 67% serum, 17% human complement
Description: as §2, §3
Strain 15253 lgtG contains a disrupted allele of lipooligosaccharide (LOS) glycosyl transferase G, which transfers glucose (via an α linkage) onto heptose-2 in the core of LOS (4). The disruption of the lgtG locus results in the loss of 2C7 epitope expression.
A standard bactericidal assay was performed to assess complement-mediated bactericidal activity in mouse sera (11). […] Survival was expressed as the percent increase in colonies on the plate at 30 minutes, compared to those on the plate at 0 minutes. […]

mAb 2C7 [5] = assay: Inhibition ELISA: synthetic peptide inhibiting mAb 2C7 binding to LOS
Description: Peptides were diluted in blocking buffer (1% ovalbumin, 0.05% TWEEN-20™ (polysorbate 20), 0.5 M NaCl in PBS) to produce mixtures of varying concentrations (0.1, 0.5 and 1 mg/ml). […] Purified LOS prepared from gonococcal strain 15253 was used as a positive control. A non-reactive 15-mer peptide sequence generated by the above described random peptide library system was used as a negative control peptide [SEQ ID NO:9].

CGPIPVLDENGLFAPGPC [Octa-MAP1] was tested, and the “binding to mAb 2C7 in direct ELISA (in words)” value (shortened to “binding to mAb 2C7”) (mAb 2C7 [1]) was “strong binding”, the “killing of strain 15253” value ([2]; serum of immunized mouse containing 1.38 μg/ml anti-LOS antibodies) was 31% and the “killing of strain 15253” value ([2]; serum of immunized mouse containing 2.50 μg/ml anti-LOS antibodies) was 74%. The “killing of strain 15253” value ([2]; serum of immunized mouse containing 5.05 μg/ml IgG anti-LOS, 67% serum, 17% human complement, 30 min) was 92%, the “survival of strain 15253” value ([2]; serum of single immunized mouse (pooled bleeds weeks 7-11), 67% serum, 17% human complement, 30 min) was 8% and the “IgG anti-LOS antibody concentration in serum of immunized mouse” value (IgG anti-LOS antibody; individual mice, pooled bleeds weeks 7-11) was 5.05 µg/mL and 1.38 µg/mL and 2.50 µg/mL. The “mice with induced IgG anti-LOS antibody response” value (IgG anti-LOS antibody; mice immunized day 0 and day 21, Octa-MAP1 50 μg in Freund's adjuvant) was “three of the eight”, the “IgG anti-LOS antibody levels compared with negative control antigens” value (IgG anti-LOS antibody; responder mice, 7 and 10 weeks after primary immunization) was “higher (p<0.001)” and the “time of peak IgG anti-LOS response” value (IgG anti-LOS antibody; three responder mice, boost at week 3) was 7 week. The IC50 (mAb 2C7 [3]) was 230 nM, the “IgM anti-LOS antibody response (in words)” value (IgM anti-LOS antibody) was “failed to respond with IgM anti-LOS levels higher than mice immunized with negative control antigens” and the “killing/survival of strain 15253 lgtG (in words)” value [4] was “survived fully”.

In the case of CGPIPVLDENGLFAPGPC [Tetra-MAP1], the “binding to mAb 2C7” value (mAb 2C7 [1]) is reported as “strong binding” and the IC50 (mAb 2C7 [3]) is reported as 1260 nM.

“CKSNPIHIIKNRRNIPC (disulfide 1-17 (inferred)) [negative control peptide, reference compound]” was tested, and the “inhibition of binding of 2C7 mAb to purified LOS coated plate (in words)” value (mAb 2C7 [5]; peptide 0.1, 0.5 and 1 mg/ml) was “did not inhibit binding”.

IPVLDENGLFAP [PEP1] was tested, and the “percentage inhibition of mAb 2C7 binding to LOS” value (from here on “percentage inhibition”) (mAb 2C7 [5]; peptide 0.1 mg/ml) was 17%, the “percentage inhibition” value (mAb 2C7 [5]; peptide 0.5 mg/ml) was 77% and the “percentage inhibition” value (mAb 2C7 [5]; peptide 1.0 mg/ml) was 91%.

“control MAP: control multiple antigen peptide(s), each antigen SEQ ID NO: 12 (CGPEARDEGTITLERGPC; cysteine pairing not given here; also: multiple antigen peptide on lysine core) [reference compound]” was tested, and the “binding to mAb 2C7” value (mAb 2C7 [1]) was “no binding” and the “inhibition of mAb 2C7 binding to LOS (in words)” value (mAb 2C7 [3]) was “no significant inhibition”.

“linear PEP1: linear PEP1 peptide compared with the MAPs in inhibition ELISA (IPVLDENGLFAP)” was tested, and the IC50 (mAb 2C7 [3]) was 55000 nM.

In the case of “unrelated octa-MAP control peptide: unrelated octa-MAP negative control, each antigen SEQ ID NO: 12 (CGPEARDEGTITLERGPC; cysteine pairing not given here; also: octa-MAP on lysine core) [reference compound]”, the “killing of strain 15253 (in words)” value ([2]; serum of single immunized mouse, 67% serum, 17% human complement) is reported as “did not kill either strain”, the “IgG anti-LOS response (in words)” value (IgG anti-LOS antibody; immunized mice) is reported as “weak or no IgG anti-LOS responses” and the “killing/survival of strain 15253 lgtG (in words)” value [4] is reported as “did not kill either strain”.
